{"source": "patent US10087421B2", "about": "“Stem cell suspension” (OTSUKA PHARMACEUTICAL FACTORY, INC., priority 2010, dated 2018)", "key": {"[1]": {"tested_on": "hAT-MSCs P8 and hBM-MSCs P6", "assay": "Survival rate, cell aggregation and floating after standing for 1 hr (Example 7)", "assay_type": "cell-based, human", "conditions": "about 25° C.", "method": "hAT-MSCs and hBM-MSCs were passaged 6 or 8 times and the obtained cells (hAT-MSCs P8 and hBM-MSCs P6) were plated on 10 cm-dishes. The cells were washed three times with 5-ml HESPANDER (KYORIN Pharmaceutical Co., Ltd.) per 10-cm dish, and detached by treating with 1-ml trypsin-EDTA (0.25% trypsin, 1 mM EDTA·4Na) for 20 sec into a single-cell state. The obtained cells (hAT-MSCs P8, 2.4×10^6 cells; hBM-MSCs P6, 2.3×10^6 cells) were transferred to a 15-ml FALCON tube, recovered by centrifugation, and suspended in the following composition solution. After standing at room temperature (about 25° C.) for 1 hr, the survival rate of the cells was measured and the cell aggregation was observed."}, "[2]": {"tested_on": "hAT-MSC P3 and hBM-MSC P3", "assay": "Cell morphology, culture after standing and survival, results not separated by cell type", "assay_type": "cell-based, human", "conditions": "trehalose in HESPANDER; 36 hr (Example 6)", "method": "The cells obtained by passaging hAT-MSCs and hBM-MSCs three times (hAT-MSC P3 and hBM-MSC P3) were plated on 10-cm dishes. The cells were washed three times with 5-ml PBS(−) per 10-cm dish, and detached by treating with 1-ml trypsin-EDTA (0.25% trypsin, 1 mM EDTA·4Na) for 20 sec into a single-cell state. […] After standing at room temperature (about 25° C.) for 240 min or 24 hr, the survival rate of the cells was measured, and the cell aggregation and morphology were observed. Furthermore, after standing for 240 min or 24 hr, the cells were further cultured for 12 hr and the cell morphology was observed.\nhAT-MSCs and hBM-MSCs were passaged three times and the obtained cells (hAT-MSCs P3 and hBM-MSCs P3) were plated on 10 cm-dishes. The cells were washed three times with 5-ml PBS(−) per 10-cm dish, and detached by treating with 1-ml trypsin-EDTA (0.25% trypsin, 1 mM EDTA·4Na) for 20 sec into a single-cell state. The obtained cells (hAT-MSCs P3, 4.25×10^5 cells; survival rate, 97.5%: hBM-MSCs P3, 5.0×10^5 cells; survival rate, 98.2%) were transferred to a 15-ml FALCON tube, recovered by centrifugation, washed twice with PBS(−), and suspended in the following composition solution (100 μL). After standing at room temperature (about 25° C.) for 8 hr or 36 hr, the survival rate of the cells was measured and the cell aggregation was observed."}, "[3]": {"tested_on": "Swine subcutaneous adipose tissue-derived mesenchymal stem cells (Pig AT-MSCs)", "assay": "Microscopic observation of cell aggregate mass and cell floating state", "assay_type": "cell-based", "conditions": "from dilution series of ET-K with saline; Pig AT-MSCs P2; 25° C.", "method": "The suspension was left standing at each temperature (0, 25, and 37° C.), pipetted several times with 20 μL PIPETMAN 0, 30, 60, 120 and 240 min later, and 10 μL thereof was transferred to a dish. A stereomicroscope was focused on the lowermost surface of the suspension on the dish, and observation was performed. The cells forming a mass with adjacent cells under the microscope were taken as cell aggregate mass. The cell aggregate mass was confirmed to be obviously moving as a mass by shaking the dish on the stage of the microscope. The swine subcutaneous adipose tissue-derived mesenchymal stem cells prepared in Example 1 were passaged twice and the obtained cells (Pig AT-MSCs P2) were plated on three 10 cm-dishes. The cells were washed three times with 5 ml PBS(−) per 10 cm dish, and detached by treating with 1 ml trypsin-EDTA (0.25% trypsin, 1 mM EDTA·4Na) for 20 sec into a single-cell state. […] Thereafter, in the same manner as in Example 1, the survival rate was calculated and the presence or absence of the cell aggregate mass was observed. […] Thereafter, in the same manner as in Example 1, the survival rate was calculated and the presence or absence of a cell aggregate mass was observed. […]"}}}
{"compound": "OC[C@H]1O[C@H](O[C@H]2O[C@H](CO)[C@@H](O)[C@H](O)[C@H]2O)[C@H](O)[C@@H](O)[C@@H]1O", "note": "[trehalose]", "values": [{"measurement": "cell aggregation suppressive effect", "setting": "[1]", "result": "observed"}, {"measurement": "cell floating effect", "setting": "[1]", "result": "observed"}, {"measurement": "protrusion from the cell / on the cell surface", "setting": "[1]", "result": "suppressed"}, {"measurement": "cell survival rate", "setting": "[1]; added to HESPANDER", "result": "higher than by adding HESPANDER (H) alone"}, {"measurement": "effect on the cytotoxicity of fucoidan", "setting": "[1]; trehalose with 10 μg/ml fucoidan in HESPANDER", "result": "tendency to suppress the cytotoxicity of fucoidan"}, {"measurement": "trehalose concentration suggested to be preferable to increase the cell survival rate", "setting": "[2]", "result": "not more than 181.2 mg/mL"}, {"measurement": "trehalose concentration at which a stem cell aggregation suppressive effect is exhibited", "setting": "[3]", "result": "not less than 15.1 mg/ml"}, {"measurement": "trehalose concentration at which the stem cells float stably", "setting": "[3]", "result": "at least 15.1 mg/ml"}]}
